The record followed here is ChEMBL document CHEMBL5223109, “The discovery of BMS-737 as a potent, CYP17 lyase-selective inhibitor for the treatment of castration-resistant prostate cancer” (Bioorg Med Chem Lett, 2022).

Data set [1] concerns the target T1, Steroid 17-alpha-hydroxylase/17,20 lyase (Homo sapiens, UniProt P05093).
T1 sequence (P05093 whole entry): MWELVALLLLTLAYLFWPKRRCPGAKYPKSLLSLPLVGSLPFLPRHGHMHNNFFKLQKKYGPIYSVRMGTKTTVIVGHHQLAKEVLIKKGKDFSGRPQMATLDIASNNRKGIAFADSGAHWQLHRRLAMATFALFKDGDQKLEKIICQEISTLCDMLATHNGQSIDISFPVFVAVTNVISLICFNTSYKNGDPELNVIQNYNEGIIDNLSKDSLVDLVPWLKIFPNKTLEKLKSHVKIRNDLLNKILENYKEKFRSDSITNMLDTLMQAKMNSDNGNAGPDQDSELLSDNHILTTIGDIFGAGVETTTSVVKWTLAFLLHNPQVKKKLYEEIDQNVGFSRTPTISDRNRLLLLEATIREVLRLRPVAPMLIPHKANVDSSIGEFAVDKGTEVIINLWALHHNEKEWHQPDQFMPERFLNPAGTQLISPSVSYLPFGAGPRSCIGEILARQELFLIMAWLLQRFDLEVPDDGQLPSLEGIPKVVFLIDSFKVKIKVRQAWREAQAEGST
The data set is described as follows: Selectivity ratio for inhibition of human CYP17A1 hydroxylase activity to inhibition of human CYP17A1 lyase activity. The data set is classed as ADME.

Data set [2] deals with T1, Steroid 17-alpha-hydroxylase/17,20 lyase. The data set is described as follows: Inhibition of human CYP17A1. Type of data set: ADME.
Data set [3] in a line: Metabolic stability in rat liver microsomes assessed as parent compound remaining. Also: time not given here. Type of data set: ADME, Microsome.
Data set [4] in a line: Metabolic stability in human liver microsomes assessed as parent compound remaining relative to control. Also: time not given here. The data set is classed as ADME, Microsome.
The target of the next data set is T2, Cytochrome P450 1A2 (Homo sapiens, UniProt P05177).
T2 sequence (P05177 whole entry): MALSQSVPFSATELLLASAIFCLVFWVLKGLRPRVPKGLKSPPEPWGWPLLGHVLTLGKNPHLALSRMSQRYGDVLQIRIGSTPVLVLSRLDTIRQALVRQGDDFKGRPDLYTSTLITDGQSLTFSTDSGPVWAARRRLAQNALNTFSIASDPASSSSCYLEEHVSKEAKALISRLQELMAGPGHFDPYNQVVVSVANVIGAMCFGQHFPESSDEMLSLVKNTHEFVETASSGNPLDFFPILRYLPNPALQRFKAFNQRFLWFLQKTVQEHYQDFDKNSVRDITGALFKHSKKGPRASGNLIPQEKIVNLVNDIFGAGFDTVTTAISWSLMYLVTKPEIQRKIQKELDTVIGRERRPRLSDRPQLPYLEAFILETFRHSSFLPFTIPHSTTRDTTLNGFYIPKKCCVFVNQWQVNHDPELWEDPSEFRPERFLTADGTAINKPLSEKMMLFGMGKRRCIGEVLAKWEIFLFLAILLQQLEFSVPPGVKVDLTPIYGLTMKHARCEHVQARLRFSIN
The data set is described as follows: Inhibition of CYP1A2 (unknown origin). Type of data set: ADME.

Data set [5] in a line: Metabolic stability in mouse liver microsomes assessed as parent compound remaining. Also: time not given here. Type of data set: ADME, Microsome.

Consider `Fc1ccc(-n2ncc3c(-c4cncnc4N4CC(F)(F)C4)ccnc32)cc1`, for which the Ratio in data set [1] is on record as 3. In addition, the half-inhibitory concentration (IC50) in data set [2] is 0.004 µM; against Cytochrome P450 1A2, over 40 µM. Also, the figures for the Stability in data set [3], in data set [4] and in data set [5] were 35%, 85% and 62%, respectively.

For the compound `Nc1ncncc1-c1ccnc2c1cnn2-c1ccc(F)cc1C(F)(F)F`, the Ratio in data set [1] is 3. In addition, the IC50 in data set [2] was 0.014 µM; at Cytochrome P450 1A2, over 40 µM. For the same compound, the figures for the Stability in data set [3], in data set [4] and in data set [5] were 94%, 100% and 68%, respectively.

Turning to `Fc1ccc(-n2ncc3c(-c4cncnc4NCC(F)(F)F)ccnc32)cc1`, the Ratio in data set [1] came to 3. The IC50 in data set [2] was 0.008 µM; against Cytochrome P450 1A2, 4.71 µM. Further, the Stability in data set [3] turned out to be 40%; in data set [4], 42%; in data set [5], 3%.

As for `Fc1ccc(-n2ncc3c(-c4cncnc4NC4CC4)ccnc32)cc1`, the Ratio in data set [1] is 6. In addition, the values for the half-maximal inhibitory concentration (IC50) (in data set [2]; on Cytochrome P450 1A2) were 0.046 µM and 10.9 µM, respectively. For the same compound, the values for the Stability in data set [3], in data set [4] and in data set [5] were 27%, 67% and 7%, respectively.

`Nc1ncncc1-c1ccnc2c1cnn2-c1ccc(F)cc1F`: the Ratio in data set [1] worked out at 6. Besides, the half-maximal inhibitory concentration (IC50) in data set [2] was 0.011 µM; against Cytochrome P450 1A2 it was over 40 µM. The Stability in data set [3] is 100%; in data set [4], 98%; in data set [5], 92%.

Regarding `Fc1ccc(-n2ncc3c(-c4cncnc4C4CC4)ccnc32)cc1`, the Ratio in data set [1] was found to be 13. Besides, the IC50 is 0.023 µM in data set [2] and 0.658 µM on Cytochrome P450 1A2. The figures for the Stability in data set [3], in data set [4] and in data set [5] were 78%, 85% and 55%, respectively.
